From ChEMBL document CHEMBL5576098, “Synthesis and activity of benzimidazole N-Acylhydrazones against Trypanosoma cruzi, Leishmania amazonensis and Leishmania infantum” (Bioorg Med Chem Lett, 2024)
Activity calls are given as the source filed them. No cut-off for these calls is given here.

How the values were obtained:
[1] = Selectivity index, ratio of CC50 for mouse RAW264.7 cells to IC50 for Leishmania infantum promastigotes infected in mouse RAW264.7 cells; assay type: toxicity, cell-based; settings: read-out: Ratio CC50/IC50
Trypanosoma cruzi [2] = assay: Antitrypanosomal activity against tissue-culture derived trypomastigote form of Trypanosoma cruzi Y measured after 120 hrs; assay type: functional
Trypanosoma cruzi [3] = assay: Antitrypanosomal activity against bloodstream trypomastigote form of Trypanosoma cruzi Y measured after 24 hrs; assay type: functional, organism-based
[4] = Cytotoxicity against mouse L929 cells assessed as inhibition of cell viability measured after 120 hrs; assay type: toxicity, cell-based
Leishmania amazonensis [5] = assay: Antiparasitic activity against Leishmania amazonensis promastigotes infected in mouse RAW264.7 cells measured after 48 hrs; assay type: functional, organism-based; settings: for IC50: RAW264.7, 48 h
[6] = Selectivity index, ratio of CC50 for mouse RAW264.7 cells to IC50 for Leishmania infantum amastigotes infected in mouse RAW264.7 cells; assay type: toxicity, cell-based; settings: read-out: Ratio CC50/IC50
Trypanosoma cruzi [7] = assay: Antitrypanosomal activity against Trypanosoma cruzi Tulahuen expressing beta-galactosidase gene infected in mouse L929 cells measured after 120 hrs; assay type: functional, organism-based; settings: L929, 120 h
[8] = Selectivity index, ratio of CC50 for mouse L929 cells to IC50 for Trypanosoma cruzi Tulahuen expressing beta-galactosidase gene infected in mouse L929 cells; assay type: toxicity, cell-based; settings: read-out: Ratio CC50/IC50
[9] = Selectivity index, ratio of CC50 for mouse RAW264.7 cells to IC50 for Leishmania amazonensis amastigotes infected in mouse RAW264.7 cells; assay type: toxicity, cell-based; settings: read-out: Ratio CC50/IC50
Leishmania amazonensis [10] = assay: Antiparasitic activity against Leishmania amazonensis amastigotes infected in mouse RAW264.7 cells measured after 48 hrs; assay type: functional, organism-based; settings: for IC50: RAW264.7, 48 h
[11] = biological target: Cruzipain (Trypanosoma cruzi) (UniProt P25779); assay: Inhibition of Trypanosoma cruzi cruzain at 100 uM relative to control
Sequence of Cruzipain (Trypanosoma cruzi) (P25779 123-467 limits assumed): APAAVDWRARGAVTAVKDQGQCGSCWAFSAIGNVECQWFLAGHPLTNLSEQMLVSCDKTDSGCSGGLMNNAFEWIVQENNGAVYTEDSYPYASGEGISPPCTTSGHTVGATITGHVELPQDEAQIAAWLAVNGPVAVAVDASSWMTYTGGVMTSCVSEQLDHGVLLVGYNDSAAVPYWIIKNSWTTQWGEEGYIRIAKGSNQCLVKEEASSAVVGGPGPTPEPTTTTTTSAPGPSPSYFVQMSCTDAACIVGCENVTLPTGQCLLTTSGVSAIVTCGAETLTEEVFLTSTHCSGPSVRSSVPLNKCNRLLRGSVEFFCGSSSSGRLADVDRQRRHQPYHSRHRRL

[12] = Cytotoxicity against mouse RAW264.7 cells measured after 48 hrs; assay type: toxicity, cell-based
Leishmania infantum [13] = assay: Antiparasitic activity against Leishmania infantum amastigotes infected in mouse RAW264.7 cells measured after 48 hrs; assay type: functional, organism-based; settings: for IC50: RAW264.7, 48 h
Leishmania infantum [14] = assay: Antiparasitic activity against Leishmania infantum promastigotes infected in mouse RAW264.7 cells measured after 48 hrs; assay type: functional, organism-based; settings: for IC50: RAW264.7, 48 h
[15] = Selectivity index, ratio of CC50 for mouse RAW264.7 cells to IC50 for Leishmania amazonensis promastigotes infected in mouse RAW264.7 cells; assay type: toxicity, cell-based; settings: read-out: Ratio CC50/IC50
[16] = Cytotoxicity against non-infected mouse peritoneal macrophage cells measured after 24 hrs; assay type: toxicity, cell-based; settings: non-infected peritoneal macrophages, read-out: LC50
[17] = Selectivity index, ratio of LC50 for mouse peritoneal macrophage cells to IC50 for bloodstream trypomastigote form of Trypanosoma cruzi Y; assay type: toxicity; settings: peritoneal macrophages, read-out: Ratio LC50/IC50
Trypanosoma cruzi [18] = assay: Potency index, ratio of benznidazole IC50 to test compound IC50 for antitrypanosomal activity against Trypanosoma cruzi Tulahuen expressing beta-galactosidase gene infected in mouse L929 cells measured after 120 hrs; assay type: functional

SMILES | selectivity ratio [1] | LC50 (Trypanosoma cruzi [2]) [µM] | IC50 (Trypanosoma cruzi [3]) [µM] | CC50 at 120 h [4] [µM] | Activity (Leishmania amazonensis [5]) | selectivity ratio [6] | IC50 (Trypanosoma cruzi [7]) [µM] | selectivity ratio [8] | selectivity ratio [9] | IC50 (Leishmania amazonensis [10]) [µM] | inhibition [11] [%] | CC50 at 48 h [12] [µM] | IC50 (Leishmania infantum [13]) [µM] | IC50 (Leishmania infantum [14]) [µM] | Activity (Leishmania infantum [14]) | Activity (Leishmania infantum [13]) | also measured
O=C(N/N=C/c1ccccc1O)c1nc2ccccc2[nH]1 | 1.2 | 19.9 | > 500 | 52.4 | inactive | 1.3 | 3.6 | 14.7 | 0.3 | 104 | 4 | 29.2 | 21.8 | 23.9 | – | – | –
CCCCCCCCCCCCCCCCOP(=O)([O-])OCC[N+](C)(C)C [MILTEFOSINE] | 5.6 | – | – | – | – | 12.7 | – | – | 13.1 | 1.67 | – | 21.8 | 1.72 | 3.92 | – | – | selectivity ratio [15]: 4.2; IC50 (Leishmania amazonensis [5]): 5.2 µM
O=C(Cn1ccnc1[N+](=O)[O-])NCc1ccccc1 [BENZNIDAZOLE] | – | 10.8 | 8.8 | 2110 | – | – | 1.52 | 1390 | – | – | – | – | – | – | – | – | CC50 at 24 h [16]: > 1000 µM; selectivity ratio [17]: 113
COc1cc(/C=N/NC(=O)c2nc3ccccc3[nH]2)cc(OC)c1OC | – | 343 | > 500 | 203 | – | – | 35.6 | 5.7 | 0.3 | 148 | 6 | 42.3 | > 282 | – | inactive | – | IC50 (Leishmania amazonensis [5]): > 282 µM
O=C(N/N=C/c1ccc(F)cc1)c1nc2ccccc2[nH]1 | – | 633 | > 500 | 354 | inactive | 3.1 | 230 | 1.5 | – | > 354 | 17 | 57.8 | 18.4 | – | inactive | – | –
COc1cc(/C=N/NC(=O)c2nc3ccccc3[nH]2)cc(OC)c1 | – | – | > 500 | 164 | inactive | – | 29 | 5.6 | 0.1 | 71.8 | 50 | 8.94 | – | – | inactive | inactive | –
O=C(N/N=C/c1ccc(O)c(O)c1)c1nc2ccccc2[nH]1 | 0.2 | 98.2 | 144 | 102 | – | 0.4 | 72.9 | 1.4 | 0.2 | 62.1 | 61 | 14.8 | 37.8 | 90.8 | – | – | selectivity ratio [15]: 0.09; IC50 (Leishmania amazonensis [5]): 170 µM; CC50 at 24 h [16]: 128 µM; selectivity ratio [17]: 0.9
COc1cc(/C=N/NC(=O)c2nc3ccccc3[nH]2)cc([N+](=O)[O-])c1O | – | 369 | > 500 | 124 | inactive | – | 104 | 1.2 | – | – | 45 | 84.4 | – | – | inactive | inactive | Activity (Leishmania amazonensis [10]): inactive
O=C(N/N=C/c1ccc([N+](=O)[O-])o1)c1nc2ccccc2[nH]1 | 0.9 | 15 | 304 | 257 | inactive | 0.4 | 0.033 | 7680 | 1.4 | 18.4 | 18 | 25.7 | 61.8 | 28.7 | – | – | CC50 at 24 h [16]: > 500 µM; Ratio IC50 (Trypanosoma cruzi [18]): 46; selectivity ratio [17]: > 1.6
COc1cc(/C=N/NC(=O)c2nc3ccccc3[nH]2)ccc1O | – | 394 | > 500 | 72.2 | inactive | – | 65.7 | 1.1 | – | – | 38 | 89.9 | – | – | inactive | inactive | Activity (Leishmania amazonensis [10]): inactive
O=C(N/N=C/c1ccc2c(c1)OCO2)c1nc2ccccc2[nH]1 | – | – | > 500 | 148 | inactive | – | 105 | 1.4 | 0.7 | 45.1 | 47 | 30.1 | – | – | inactive | inactive | –
